Measured values published in patent US7244754B2, “2-methylthiazolidine-2,4-dicarboxylic acid and salts thereof for treatment of neurodegenerative diseases” (priority 2002, dated 2007).

Assays:
[1] = system: MNRI mice; assay: Apoplexy model: occlusion of the middle cerebral artery in mice, infarction surface by neutral red staining; assay type: in vivo; settings: application after or before occlusion, as in examples 3 and 4
Excerpt: In another animal experiment model (apoplexy model) it could be shown (examples 3 and 4) that 2-MTDC as well as salts of 2-MTDC have a cerebroprotective effect.
The following test series deals with the examination of the neuroprotective effect of 2-MTDC-Na in application of 2-MTDC-Na after the ischemia.
Per test group 13 through 16 MNRI mice were employed. The middle cerebral artery of the mice was occluded according to the method of Welsh (F. A. Welsh, T. Sakamoto, A. E. McKee, R. E. Sims, J. Neurochem. 1987, 49, 846-851). For that purpose the mice are anesthetized with tribromoethanol (600 mg/kg body weight, intraperitoneally). Immediately after the anesthesia a small cavity was drilled into the mice cranium to lay open the middle cerebral artery. The strain as well as both arms of the middle cerebral artery were occluded via electro coagulation. Meanwhile the blood heat of the mice was kept on 37° C.±1° C. by utilizing a heating lamp. Subsequently the mice were kept at a surrounding temperature of 30° C. for another 2 h.
One group of mice was injected intraperitoneally 2-MTDC-Na (200 mg/kg 2-MTDC-Na dissolved in 0.9% NaCl solution) 15 minutes after and another group 60 minutes after the occlusion of the middle cerebral artery. A third group received the vehicle only (0.9% NaCl solution without 2-MTDC-Na).
For the following histologic examination 2 days after the occlusion of the middle cerebral artery the mice were anesthetized again with tribromoethanol and received intraperitoneally applied 0.5 ml of a 1.5% solution of neutral red (toluylene red, Acros Chimica) in addition. The brains were extracted and kept for 24 h in a fixative solution (4% formalin with phosphate buffer at pH 7.4).
The tissue on the surface of the brain which was not colored by neutral red was measured as surface region affected by infarction under utilizing a color analysis system (Kontron, Eching, Germany) (C. Backhauβ, C. Karkoutly, M. Welsh, J. Krieglstein, J. Pharmacol Toxicol Methods, 1992, 27 (2), 27-32).
The execution of the test according to example 3 was repeated whereas 2-MTDC-Na was applied one hour before the occlusion of the middle cerebral artery (MCA-O: occlusion of the middle cerebral artery).

[2] = system: dopaminergic neurons; assay: Intrastriatal sodium malonate lesion in rats; transmitters and metabolites in striatum and substantia nigra by HPLC; assay type: in vivo, Wistar rats; settings: for activity of dopaminergic neurons (3-methoxytyramine concentration): lysine salt injected intraperitoneally four to five days before measuring, rats
[3] = system: striatum of rats; settings: seven days after injecting the malonate; cited from earlier work

For C[C@]1(C(=O)O)N[C@H](C(=O)O)CS1 [(2S,4R)-2-methylthiazolidine-2,4-dicarboxylic acid], the “infarction extent induced by occlusion of the cerebral artery (test series of examples 3 and 4)” value (“infarction extent induced by occlusion” for short) [1] was “capable of reducing the infarction extent”.

In the case of C[C@@]1(C(=O)O)N[C@H](C(=O)O)CS1 [(2R,4R)-2-methylthiazolidine-2,4-dicarboxylic acid], the “infarction extent induced by occlusion” value [1] is reported as “capable of reducing the infarction extent”.

With CC1(C(=O)O)N[C@H](C(=O)O)CS1 (mixture of isomers) [2-MTDC, (2RS,4R)-2-methylthiazolidine-2,4-dicarboxylic acid] the “infarction extent induced by occlusion” value [1] was “capable of reducing the infarction extent”.

For CC1(C(=O)O)NC(C(=O)O)CS1.NCCCCC(N)C(=O)O.NCCCCC(N)C(=O)O (centres unmarked) [2-MTDC-lys], the “influence on the concentration of dopamine, DOPAC, HVA” value ([2]; 2-MTDC-lys solely (no malonate), 2x0.8 mmol/kg i.p., four days after last application) was “no influence”, the “effect on dopaminergic versus serotonergic neurons (5-HT, 5-HIAA)” value ([2]; chosen dose rate, examination period of four days from last application) was “affects obviously dopaminergic neurons but not serotonergic neurons” and the “activity of dopaminergic neurons (3-methoxytyramine concentration)” value [2] was “long persistent activation”. For the same compound, the “activity of dopaminergic neurons (3-methoxytyramine concentration)” value ([2]; listed as lysine salt of 2-MTDC) was “intense activation of the dopaminergic neurons”, the “effect of malonate on the reduction of dopamine and dopamine metabolite concentrations (neuroprotection)” value ([2]; pretreatment 2x0.8 mmol/kg i.p., 2 μmol sodium malonate into left striatum, four days after last application) was “prevents the toxic effect of malonate” and the “neurodegeneration of nerve ends in the striatum and cell bodies in the substantia nigra” value ([2]; treatment before malonate (prophylactic)) was “prevents the neurodegeneration”. The “infarction extent induced by occlusion” value ([1]; listed as lysine salts of 2-MTDC) was “capable of reducing the infarction extent”.

In the case of O=C([O-])CC(=O)[O-].[Na+].[Na+] [malonate, sodium malonate], the “concentration of dopamine in the striatum compared to the contralateral striatum” value [3] is listed as 6%.
